The record followed here is patent publication US20120027720A1, “PEPTIDE CONJUGATES” (priority 2008, published 2012).

Where a SMILES comes first, the peptide text is derived from it. Where no end group is shown, it is not given here. [ ]: non-standard residue; d: D form. AllylGly = C=CC[C@H](N)C(=O)O

What all share (assay type): cell-based
Series [1] relates to IEC6 cells. Briefly: Real-Time Cell Electronic Sensing (RT-CES, ACEA) assay of cell morphology change. To be noted: peptide at 5 mg/mL. Set-up: key: + indicates an enhancement of the permeability of the tight junctions were observed; − indicates no enhancement of permeability was observed. An excerpt: Agonists of tight junctions can be identified by their ability to induce changes in morphology of cells in a monolayer of cells that comprise tight junctions. Such changes in the morphology of IEC6 cells may be measured using a Real-Time Cell Electronic Sensing protocol as described below.
Tight junction agonists can be identified using the following method an used in peptide conjugates of the invention:
Materials: cells: IEC6 passage 30-50, medium: DMEM 10% no calcium no magnesium, foetal bovine serum 0.1 unit per ml bovine insulin, buffers: phosphate buffered saline (PBS) no calcium no magnesium, trypsin: 0.25% porcine trypsin in HBSS no calcium no magnesium, flasks: 100×20 mm Tissue culture dish Falcon, plates: 16× E-Plate, machine: RT-CES™ 16× system (ACEA Biosciences, Inc., San Diego, Calif.)
Wash a 75 cm^2 flask of confluent IEC6 cells twice with 25 ml of PBS.
Add 2.5 ml of trypsin to the flask and place back in the incubator at 37° C.
Wash cells from the surface of the flask with 10 ml of serum containing media to quench the trypsin.
Pellet the cells by centrifugation at 1500 rpm for 5 minutes aspirate the media.
Resuspend the cell pellet in 10 ml of serum free media and centrifuge at 1500 rpm for 5 minutes aspirate the media and repeat for a total of 5 washes.
Take 100 μl of cells and mix with 100 μl of trypan blue.
Count the cells four times and use the average cell concentration.
Dilute the cells to 1×10^6 per ml in serum free media.
Add 100 μl of serum free media to each well of the ACEA plates to be used.
Insert the ACEA plate and press scan.
Run step 1 of the program to measure background.
Add 50 μl of cells to each well of the ACEA plate tap each slide of the plate 10 times and place the cells on the bench for 15 minutes to allow the cells to settle.
Insert the ACEA plate and run the scan step to check connections and run step 2-1 and 2-2 overnight.
Step 2-1 sample every 2 minutes 30 times.
Step 2-2 sample every 15 minutes 100 times.
The cell indices should be between 6-10 after the overnight run and should have reached a plateau.
Remove 100 μl of media carefully from each well.
Make up the compounds to be tested so that 50 μl contains 2× the desired final concentration.
Add 50 μl of compounds to the designated wells.
Scan the plate to check connections.
Step 3-1 sample every 2 minutes 30 times.
Step 3-2 sample every 15 minutes 100 times.

Series [2] has as its system CaCo2 monolayers. Kind of series: Trans Epithelial Electric Resistance (TEER) across cell monolayer. Conditions: for Reduced TEER: Caco-2 monolayer. Set-up: key to Reduced TEER: + indicates an enhancement of the permeability of the tight junctions were observed; − indicates no enhancement of permeability was observed. A digest of the protocol:
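Caco-2 cells, passage 40-60, grown 21-28 days on Transwell filters, equilibrated 30 min at 37° C in MHBSS pH 7.4. Test compound with Lucifer Yellow applied apically (n=3), incubated at 37° C with 50 RPM shaking; TEER measured at baseline and at 30, 60, 120 and 180 min.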

The subject of series [3] is CaCo2 monolayers. Kind of series: Epithelial flux of Lucifer Yellow through cell monolayer. Set-up: key to Enhanced LY permeability: + indicates an enhancement of the permeability of the tight junctions were observed; − indicates no enhancement of permeability was observed. To be noted: for Enhanced LY permeability: Lucifer Yellow flux, Caco-2 monolayer. The method in brief:
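Caco-2 cells (passage 40-60) grown 21-28 days on Transwell filters, equilibrated 30 min at 37 °C in HBSS-HEPES pH 7.4; Lucifer Yellow with test compound applied apically, n=3 filters. Basolateral samples at 60, 120, 180 min read by fluorescence at 485/535 nm against standard curve; TEER also measured.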
In general terms: Caco-2 cells form a polarised layer with tight junctions and transporters.

Regarding “2 (ACIGRL; not fully specified; printed as Ala-Cys-Ile-Gly-Arg-Leu) [compound 2]”, the “ACEA 5 mg/mL” value in series [1] is on record as “+”. The “Reduced TEER” value in series [2] is given as “−”. The “Enhanced LY permeability” value in series [3] is “−”.
“3 (FAIGRL; not fully specified; printed as Phe-Ala-Ile-Gly-Arg-Leu) [compound 3]”: the “ACEA 5 mg/mL” value in series [1] is given as “−”. Also, the “Reduced TEER” value in series [2] was “−”. For the same compound, in series [3], the “Enhanced LY permeability” value is on record as “−”.
On to “5 (FCIARL; not fully specified; printed as Phe-Cys-Ile-Ala-Arg-Leu) [compound 5]”, for which the “ACEA 5 mg/mL” value in series [1] was “−”. Further, the “Reduced TEER” value in series [2] is on record as “−”. The “Enhanced LY permeability” value in series [3] is given as “−”.
As to “6 (FCIGAL; not fully specified; printed as Phe-Cys-Ile-Gly-Ala-Leu) [compound 6]”, the “ACEA 5 mg/mL” value in series [1] is given as “+”. Besides, the “Reduced TEER” value in series [2] is given as “−”. Besides, the “Enhanced LY permeability” value in series [3] is “−”.
For the compound “11 (FCIG; also: peptide conjugate) [compound 11]”, the “ACEA 5 mg/mL” value in series [1] is given as “+”. Besides, the “Reduced TEER” value in series [2] is given as “−”.
For “198 (A[AllylGly]IGRL-NH2; N-terminus assumed; SMILES C=CC[C@H](NC(=O)[C@H](C)N)C(=O)N[C@H](C(=O)NCC(=O)N[C@@H](CCCNC(=N)N)C(=O)N[C@@H](CC(C)C)C(N)=O)[C@@H](C)CC) [compound 198]”, the “Reduced TEER” value in series [2] is reported as “−”. In addition, the “Enhanced LY permeability” value in series [3] was “−”.
As to “199 (H[AllylGly]IGRL-NH2; N-terminus assumed; SMILES C=CC[C@H](NC(=O)[C@@H](N)Cc1c[nH]cn1)C(=O)N[C@H](C(=O)NCC(=O)N[C@@H](CCCNC(=N)N)C(=O)N[C@@H](CC(C)C)C(N)=O)[C@@H](C)CC) [compound 199]”, in series [2], the “Reduced TEER” value is recorded as “−”. The “Enhanced LY permeability” value in series [3] is listed as “−”.
Turning to “200 (P[AllylGly]IGRL-NH2; N-terminus assumed; SMILES C=CC[C@H](NC(=O)[C@@H]1CCCN1)C(=O)N[C@H](C(=O)NCC(=O)N[C@@H](CCCNC(=N)N)C(=O)N[C@@H](CC(C)C)C(N)=O)[C@@H](C)CC) [compound 200]”, the “Reduced TEER” value in series [2] is recorded as “−”. Further, in series [3], the “Enhanced LY permeability” value is reported as “−”.
On to “201 (R[AllylGly]IGRL-NH2; N-terminus assumed; SMILES C=CC[C@H](NC(=O)[C@@H](N)CCCNC(=N)N)C(=O)N[C@H](C(=O)NCC(=O)N[C@@H](CCCNC(=N)N)C(=O)N[C@@H](CC(C)C)C(N)=O)[C@@H](C)CC) [compound 201]”, for which the “Reduced TEER” value in series [2] is listed as “−”. Also, the “Enhanced LY permeability” value in series [3] is “−”.
With “202 (I[AllylGly]IGRL-NH2; N-terminus assumed; SMILES C=CC[C@H](NC(=O)[C@@H](N)[C@@H](C)CC)C(=O)N[C@H](C(=O)NCC(=O)N[C@@H](CCCNC(=N)N)C(=O)N[C@@H](CC(C)C)C(N)=O)[C@@H](C)CC) [compound 202]”, the “Reduced TEER” value in series [2] was “−”. The “Enhanced LY permeability” value in series [3] was “−”.
Take “203 (F[AllylGly]PGRL-NH2; N-terminus assumed; SMILES C=CC[C@H](NC(=O)[C@@H](N)Cc1ccccc1)C(=O)N1CCC[C@H]1C(=O)NCC(=O)N[C@@H](CCCNC(=N)N)C(=O)N[C@@H](CC(C)C)C(N)=O) [compound 203]”: in series [2], the “Reduced TEER” value is reported as “−”. Besides, in series [3], the “Enhanced LY permeability” value is reported as “−”.
With “204 (F[AllylGly]FGRL-NH2; N-terminus assumed; SMILES C=CC[C@H](NC(=O)[C@@H](N)Cc1ccccc1)C(=O)N[C@@H](Cc1ccccc1)C(=O)NCC(=O)N[C@@H](CCCNC(=N)N)C(=O)N[C@@H](CC(C)C)C(N)=O) [compound 204]”, the “Reduced TEER” value in series [2] is listed as “=”. Further, the “Enhanced LY permeability” value in series [3] was “+”.
The matching figures for “205 (F[AllylGly]TGRL-NH2; N-terminus assumed; SMILES C=CC[C@H](NC(=O)[C@@H](N)Cc1ccccc1)C(=O)N[C@H](C(=O)NCC(=O)N[C@@H](CCCNC(=N)N)C(=O)N[C@@H](CC(C)C)C(N)=O)[C@@H](C)O) [compound 205]”: “−” and “−”.
Taken in the same sequence, the figures for “206 (F[AllylGly]LGRL-NH2; N-terminus assumed; SMILES C=CC[C@H](NC(=O)[C@@H](N)Cc1ccccc1)C(=O)N[C@@H](CC(C)C)C(=O)NCC(=O)N[C@@H](CCCNC(=N)N)C(=O)N[C@@H](CC(C)C)C(N)=O) [compound 206]” were “+” and “+”.
Taken in the same sequence, the figures for “207 (F[AllylGly]SGRL-NH2; N-terminus assumed; SMILES C=CC[C@H](NC(=O)[C@@H](N)Cc1ccccc1)C(=O)N[C@@H](CO)C(=O)NCC(=O)N[C@@H](CCCNC(=N)N)C(=O)N[C@@H](CC(C)C)C(N)=O) [compound 207]” were “+” and “+”.
“208 (F[AllylGly]FGRL-NH2; N-terminus assumed; SMILES C=CC[C@H](NC(=O)[C@@H](N)Cc1ccccc1)C(=O)N[C@@H](Cc1ccccc1)C(=O)NCC(=O)N[C@@H](CCCNC(=N)N)C(=O)N[C@@H](CC(C)C)C(N)=O) [compound 208]”: the “Reduced TEER” value in series [2] is reported as “+”. Also, the “Enhanced LY permeability” value in series [3] was “+”.
As to “209 (F[AllylGly]VGRL-NH2; N-terminus assumed; SMILES C=CC[C@H](NC(=O)[C@@H](N)Cc1ccccc1)C(=O)N[C@H](C(=O)NCC(=O)N[C@@H](CCCNC(=N)N)C(=O)N[C@@H](CC(C)C)C(N)=O)C(C)C) [compound 209]”, the “Reduced TEER” value in series [2] is reported as “−”. Besides, the “Enhanced LY permeability” value in series [3] is recorded as “−”.
Regarding “210 (F[AllylGly]GGRL-NH2; N-terminus assumed; SMILES C=CC[C@H](NC(=O)[C@@H](N)Cc1ccccc1)C(=O)NCC(=O)NCC(=O)N[C@@H](CCCNC(=N)N)C(=O)N[C@@H](CC(C)C)C(N)=O) [compound 210]”, in series [2], the “Reduced TEER” value was “+”. Further, the “Enhanced LY permeability” value in series [3] was “+”.
In the case of “211 (F[AllylGly]AGRL-NH2; N-terminus assumed; SMILES C=CC[C@H](NC(=O)[C@@H](N)Cc1ccccc1)C(=O)N[C@@H](C)C(=O)NCC(=O)N[C@@H](CCCNC(=N)N)C(=O)N[C@@H](CC(C)C)C(N)=O) [compound 211]”, the “Reduced TEER” value in series [2] is on record as “+”. Further, in series [3], the “Enhanced LY permeability” value is listed as “+”.
On to “220 (F[AllylGly]ITRL-NH2; N-terminus assumed; SMILES C=CC[C@H](NC(=O)[C@@H](N)Cc1ccccc1)C(=O)N[C@H](C(=O)N[C@H](C(=O)N[C@@H](CCCNC(=N)N)C(=O)N[C@@H](CC(C)C)C(N)=O)[C@@H](C)O)[C@@H](C)CC) [compound 220]”, for which the “Reduced TEER” value in series [2] is reported as “−”. In addition, the “Enhanced LY permeability” value in series [3] is recorded as “−”.
As to “223 (F[AllylGly]IARL-NH2; N-terminus assumed; SMILES C=CC[C@H](NC(=O)[C@@H](N)Cc1ccccc1)C(=O)N[C@H](C(=O)N[C@@H](C)C(=O)N[C@@H](CCCNC(=N)N)C(=O)N[C@@H](CC(C)C)C(N)=O)[C@@H](C)CC) [compound 223]”, the “Reduced TEER” value in series [2] is given as “+”. Besides, the “Enhanced LY permeability” value in series [3] is “+”.
Consider “224 (F[AllylGly]IPRL-NH2; N-terminus assumed; SMILES C=CC[C@H](NC(=O)[C@@H](N)Cc1ccccc1)C(=O)N[C@H](C(=O)N1CCC[C@H]1C(=O)N[C@@H](CCCNC(=N)N)C(=O)N[C@@H](CC(C)C)C(N)=O)[C@@H](C)CC) [compound 224]”, for which, in series [2], the “Reduced TEER” value is “−”. In addition, the “Enhanced LY permeability” value in series [3] is “−”.
For the compound `CC[C@H](C)[C@H](NC(=O)[C@H](CS)NC(=O)[C@@H](N)Cc1ccccc1)C(=O)NCC(=O)N[C@@H](CCCNC(=N)N)C(=O)N[C@@H](CC(C)C)C(=O)O` [SEQ ID NO: 1, Phe-Cys-Ile-Gly-Arg-Leu] (H-FCIGRL-OH; N-terminus and C-terminus assumed), the “decrease in TEER across CaCo2 monolayers” value in series [2] (compared to vehicle alone) is 16 fold. In addition, in series [3] (compared to vehicle alone), the “enhancement of Lucifer Yellow permeability through CaCo2 monolayers” value is 51 fold.
